Columns and labels:
[1] = molecular target: Protein-tyrosine kinase 6 (Homo sapiens) (UniProt Q13882); assay: Inhibition of human recombinant BRK (174 to 734) at 5 nM by radiometric scintillation counting analysis relative to control
[2] = molecular target: T1, Tyrosine-protein kinase CSK (Homo sapiens, UniProt P41240); assay: Inhibition of human full length recombinant CSK at 5 nM by radiometric scintillation counting analysis relative to control
[3] = molecular target: Tyrosine-protein kinase Fgr (Homo sapiens, UniProt P09769); assay: Inhibition of human recombinant FGR (456 to 770) at 5 nM by radiometric scintillation counting analysis relative to control
[4] = molecular target: Proto-oncogene tyrosine-protein kinase Src (Homo sapiens, UniProt P12931); assay: Inhibition of human recombinant Src (1-530) at 5 nM by radiometric scintillation counting analysis relative to control
[5] = molecular target: T2, Tyrosine-protein kinase Srms (Homo sapiens, UniProt Q9H3Y6); assay: Inhibition of human SRMS at 5 nM by radiometric scintillation counting analysis relative to control
[6] = molecular target: Tyrosine-protein kinase ABL1 (Homo sapiens, UniProt P00519); assay: Inhibition of human recombinant ABL1 using ATP/Ulight-TK peptide at 50 nM incubated for 15 mins relative to control
[7] = molecular target: T3, Macrophage colony-stimulating factor 1 receptor (Homo sapiens, UniProt P07333); assay: Inhibition of human recombinant CSF1R using ATP/Ulight-TK peptide at 50 nM incubated for 15 mins relative to control
[8] = molecular target: Platelet-derived growth factor receptor alpha (Homo sapiens) (UniProt P16234); assay: Inhibition of human recombinant PDGFRalpha (550 to end) at 50 nM by radiometric scintillation counting analysis relative to control
[9] = molecular target: T2, Tyrosine-protein kinase Srms; assay: Inhibition of human SRMS at 50 nM by radiometric scintillation counting analysis relative to control
[10] = molecular target: T4, Tyrosine-protein kinase ZAP-70 (Homo sapiens) (UniProt P43403); assay: Inhibition of human full length recombinant ZAP70 at 50 nM by radiometric scintillation counting analysis relative to control
T4 sequence (whole entry): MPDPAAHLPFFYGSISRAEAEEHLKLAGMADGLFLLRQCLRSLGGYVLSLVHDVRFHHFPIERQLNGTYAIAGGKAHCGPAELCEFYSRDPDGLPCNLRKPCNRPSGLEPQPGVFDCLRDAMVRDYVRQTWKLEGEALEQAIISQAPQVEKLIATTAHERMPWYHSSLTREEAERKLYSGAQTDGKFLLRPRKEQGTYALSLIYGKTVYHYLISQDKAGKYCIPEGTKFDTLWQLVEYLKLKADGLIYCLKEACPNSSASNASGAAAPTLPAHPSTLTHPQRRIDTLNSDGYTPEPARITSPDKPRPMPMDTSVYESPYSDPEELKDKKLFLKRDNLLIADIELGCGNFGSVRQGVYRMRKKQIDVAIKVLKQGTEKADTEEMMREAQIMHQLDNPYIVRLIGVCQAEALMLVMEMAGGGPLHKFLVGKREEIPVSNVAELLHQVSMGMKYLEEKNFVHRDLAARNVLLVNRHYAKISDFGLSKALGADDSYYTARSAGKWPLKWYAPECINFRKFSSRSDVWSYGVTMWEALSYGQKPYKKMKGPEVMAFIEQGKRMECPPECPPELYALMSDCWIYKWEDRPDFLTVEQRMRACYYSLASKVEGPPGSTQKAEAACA

[11] = molecular target: T5, Cytoplasmic tyrosine-protein kinase BMX (Homo sapiens) (UniProt P51813); assay: Inhibition of human full length recombinant Bmx at 500 nM by radiometric scintillation counting analysis relative to control
T5 sequence (whole entry): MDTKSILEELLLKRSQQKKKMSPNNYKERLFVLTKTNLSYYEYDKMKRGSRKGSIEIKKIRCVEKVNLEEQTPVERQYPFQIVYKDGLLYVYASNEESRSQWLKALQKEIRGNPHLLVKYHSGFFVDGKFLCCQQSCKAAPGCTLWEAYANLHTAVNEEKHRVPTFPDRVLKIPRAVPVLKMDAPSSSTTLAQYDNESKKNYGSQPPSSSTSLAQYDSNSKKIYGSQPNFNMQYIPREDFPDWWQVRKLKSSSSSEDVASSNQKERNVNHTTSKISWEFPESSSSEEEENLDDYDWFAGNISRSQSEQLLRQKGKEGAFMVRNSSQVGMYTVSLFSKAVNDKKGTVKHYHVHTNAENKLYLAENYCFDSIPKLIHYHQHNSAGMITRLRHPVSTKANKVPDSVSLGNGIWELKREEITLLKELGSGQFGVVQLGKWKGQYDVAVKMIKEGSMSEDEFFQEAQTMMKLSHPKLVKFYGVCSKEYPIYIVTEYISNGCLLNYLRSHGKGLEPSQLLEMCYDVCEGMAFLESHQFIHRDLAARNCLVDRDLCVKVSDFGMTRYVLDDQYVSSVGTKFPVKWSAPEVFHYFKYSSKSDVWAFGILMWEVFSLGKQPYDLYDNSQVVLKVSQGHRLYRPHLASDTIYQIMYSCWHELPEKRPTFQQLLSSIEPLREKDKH

[12] = molecular target: Tyrosine-protein kinase BTK (Homo sapiens) (UniProt Q06187); assay: Inhibition of human full length recombinant BTK at 500 nM by radiometric scintillation counting analysis relative to control
[13] = molecular target: T1, Tyrosine-protein kinase CSK; assay: Inhibition of human full length recombinant CSK at 500 nM by radiometric scintillation counting analysis relative to control
[14] = molecular target: T3, Macrophage colony-stimulating factor 1 receptor; assay: Inhibition of human recombinant CSF1R using ATP/Ulight-TK peptide at 500 nM incubated for 15 mins relative to control
[15] = molecular target: Tyrosine-protein kinase SYK (Homo sapiens) (UniProt P43405); assay: Inhibition of human full length recombinant Syk at 500 nM by radiometric scintillation counting analysis relative to control
[16] = molecular target: T6, Tyrosine-protein kinase TXK (Homo sapiens) (UniProt P42681); assay: Inhibition of human recombinant Txk (256 to end) at 500 nM by radiometric scintillation counting analysis relative to control
T6 sequence (whole entry): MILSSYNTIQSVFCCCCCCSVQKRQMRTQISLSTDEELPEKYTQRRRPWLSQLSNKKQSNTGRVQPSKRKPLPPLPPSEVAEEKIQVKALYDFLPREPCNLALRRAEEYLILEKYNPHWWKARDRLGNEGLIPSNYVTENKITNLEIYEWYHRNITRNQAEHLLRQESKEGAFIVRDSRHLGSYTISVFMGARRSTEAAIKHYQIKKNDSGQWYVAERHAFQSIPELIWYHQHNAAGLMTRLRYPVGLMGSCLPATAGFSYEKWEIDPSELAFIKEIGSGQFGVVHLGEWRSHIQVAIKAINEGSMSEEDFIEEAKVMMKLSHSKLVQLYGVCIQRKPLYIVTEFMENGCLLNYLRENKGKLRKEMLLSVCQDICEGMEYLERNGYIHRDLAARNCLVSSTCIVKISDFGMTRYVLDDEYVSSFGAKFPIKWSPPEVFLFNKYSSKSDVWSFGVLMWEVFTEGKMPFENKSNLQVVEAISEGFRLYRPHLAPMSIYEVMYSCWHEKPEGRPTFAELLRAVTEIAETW

[17] = molecular target: T4, Tyrosine-protein kinase ZAP-70 (Homo sapiens); assay: Inhibition of human full length recombinant ZAP70 at 500 nM by radiometric scintillation counting analysis relative to control

T1 sequence (P41240 2-450 limits assumed): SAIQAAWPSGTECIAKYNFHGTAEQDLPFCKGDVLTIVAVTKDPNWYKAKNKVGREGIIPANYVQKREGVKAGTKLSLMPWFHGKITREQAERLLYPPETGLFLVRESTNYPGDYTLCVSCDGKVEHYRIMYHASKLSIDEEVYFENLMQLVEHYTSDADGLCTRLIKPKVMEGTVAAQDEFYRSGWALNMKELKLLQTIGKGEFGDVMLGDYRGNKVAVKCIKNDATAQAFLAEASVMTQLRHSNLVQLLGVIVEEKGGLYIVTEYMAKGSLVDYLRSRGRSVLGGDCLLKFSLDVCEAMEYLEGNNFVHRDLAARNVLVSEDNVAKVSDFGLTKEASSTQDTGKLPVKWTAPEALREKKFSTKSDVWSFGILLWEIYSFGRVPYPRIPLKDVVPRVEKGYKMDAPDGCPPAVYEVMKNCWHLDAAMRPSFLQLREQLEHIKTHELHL
T3 sequence (P07333 whole entry): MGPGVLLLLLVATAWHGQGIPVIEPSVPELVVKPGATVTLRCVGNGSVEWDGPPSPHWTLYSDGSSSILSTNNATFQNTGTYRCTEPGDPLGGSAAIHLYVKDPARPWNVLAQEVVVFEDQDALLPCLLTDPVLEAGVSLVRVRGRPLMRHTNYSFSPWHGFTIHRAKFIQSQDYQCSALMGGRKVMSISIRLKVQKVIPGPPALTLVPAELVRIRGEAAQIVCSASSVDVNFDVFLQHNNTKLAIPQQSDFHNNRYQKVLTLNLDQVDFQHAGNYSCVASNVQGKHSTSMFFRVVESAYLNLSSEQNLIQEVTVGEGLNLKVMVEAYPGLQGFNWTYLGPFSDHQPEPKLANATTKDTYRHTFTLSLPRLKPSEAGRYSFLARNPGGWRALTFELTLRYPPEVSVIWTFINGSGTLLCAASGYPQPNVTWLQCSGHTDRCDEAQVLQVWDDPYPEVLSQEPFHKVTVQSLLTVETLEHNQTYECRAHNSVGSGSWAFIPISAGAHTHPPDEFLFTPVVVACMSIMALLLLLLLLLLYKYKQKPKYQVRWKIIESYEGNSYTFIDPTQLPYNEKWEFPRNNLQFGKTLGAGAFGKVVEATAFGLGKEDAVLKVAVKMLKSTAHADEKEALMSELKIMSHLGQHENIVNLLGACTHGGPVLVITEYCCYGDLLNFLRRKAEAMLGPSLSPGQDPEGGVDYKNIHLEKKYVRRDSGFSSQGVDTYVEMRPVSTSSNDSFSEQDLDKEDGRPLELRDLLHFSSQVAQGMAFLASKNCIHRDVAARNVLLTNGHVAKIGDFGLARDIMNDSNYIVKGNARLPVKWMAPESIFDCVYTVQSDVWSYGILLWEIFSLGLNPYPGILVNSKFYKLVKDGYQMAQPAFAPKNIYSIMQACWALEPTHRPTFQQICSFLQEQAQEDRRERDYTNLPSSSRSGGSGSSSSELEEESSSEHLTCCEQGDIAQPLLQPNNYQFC
Chain of Tyrosine-protein kinase ABL1 (P00519 whole entry): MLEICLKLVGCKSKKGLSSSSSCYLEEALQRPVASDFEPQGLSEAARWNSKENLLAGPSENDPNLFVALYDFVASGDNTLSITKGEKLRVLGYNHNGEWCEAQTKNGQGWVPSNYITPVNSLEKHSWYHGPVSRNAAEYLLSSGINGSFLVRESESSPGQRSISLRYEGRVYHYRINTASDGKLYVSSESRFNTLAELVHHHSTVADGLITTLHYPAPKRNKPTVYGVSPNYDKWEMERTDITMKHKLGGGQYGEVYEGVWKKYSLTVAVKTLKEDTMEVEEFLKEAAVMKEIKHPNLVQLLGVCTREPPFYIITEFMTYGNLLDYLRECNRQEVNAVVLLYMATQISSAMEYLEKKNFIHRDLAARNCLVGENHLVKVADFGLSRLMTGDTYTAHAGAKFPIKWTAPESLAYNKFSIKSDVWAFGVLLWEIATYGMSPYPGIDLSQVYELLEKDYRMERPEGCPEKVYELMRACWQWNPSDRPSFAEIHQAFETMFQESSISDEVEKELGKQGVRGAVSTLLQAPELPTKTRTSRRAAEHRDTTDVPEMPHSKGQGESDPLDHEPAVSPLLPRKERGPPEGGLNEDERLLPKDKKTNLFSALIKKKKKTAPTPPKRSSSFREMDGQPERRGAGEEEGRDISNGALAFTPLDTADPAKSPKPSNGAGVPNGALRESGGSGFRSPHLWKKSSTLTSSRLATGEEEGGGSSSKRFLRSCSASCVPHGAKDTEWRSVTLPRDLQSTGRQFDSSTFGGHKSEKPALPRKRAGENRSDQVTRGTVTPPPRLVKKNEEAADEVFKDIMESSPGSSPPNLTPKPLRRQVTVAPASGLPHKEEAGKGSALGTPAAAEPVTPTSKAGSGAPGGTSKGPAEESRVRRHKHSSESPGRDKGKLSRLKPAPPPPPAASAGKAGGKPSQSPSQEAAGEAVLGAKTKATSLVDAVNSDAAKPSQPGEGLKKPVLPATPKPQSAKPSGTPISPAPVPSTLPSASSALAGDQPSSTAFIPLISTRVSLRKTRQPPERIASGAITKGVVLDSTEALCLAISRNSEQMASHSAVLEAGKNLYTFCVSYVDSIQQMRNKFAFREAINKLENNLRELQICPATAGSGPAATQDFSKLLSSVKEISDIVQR
Chain of Proto-oncogene tyrosine-protein kinase Src (P12931 2-536 limits assumed): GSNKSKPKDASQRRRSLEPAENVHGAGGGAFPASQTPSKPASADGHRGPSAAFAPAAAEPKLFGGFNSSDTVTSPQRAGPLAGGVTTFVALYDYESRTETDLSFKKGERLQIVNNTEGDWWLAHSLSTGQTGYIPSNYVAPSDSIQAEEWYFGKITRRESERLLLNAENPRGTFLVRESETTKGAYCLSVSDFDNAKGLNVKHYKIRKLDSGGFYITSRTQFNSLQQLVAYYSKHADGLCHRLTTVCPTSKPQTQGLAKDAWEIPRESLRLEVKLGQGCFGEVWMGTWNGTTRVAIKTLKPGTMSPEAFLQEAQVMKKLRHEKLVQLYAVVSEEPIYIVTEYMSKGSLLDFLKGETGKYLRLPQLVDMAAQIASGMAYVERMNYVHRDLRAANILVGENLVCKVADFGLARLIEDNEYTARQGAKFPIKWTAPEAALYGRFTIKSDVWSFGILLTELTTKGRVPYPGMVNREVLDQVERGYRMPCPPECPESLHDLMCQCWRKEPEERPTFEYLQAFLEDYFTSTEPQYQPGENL
Chain of Tyrosine-protein kinase Fgr (P09769 2-529 limits assumed): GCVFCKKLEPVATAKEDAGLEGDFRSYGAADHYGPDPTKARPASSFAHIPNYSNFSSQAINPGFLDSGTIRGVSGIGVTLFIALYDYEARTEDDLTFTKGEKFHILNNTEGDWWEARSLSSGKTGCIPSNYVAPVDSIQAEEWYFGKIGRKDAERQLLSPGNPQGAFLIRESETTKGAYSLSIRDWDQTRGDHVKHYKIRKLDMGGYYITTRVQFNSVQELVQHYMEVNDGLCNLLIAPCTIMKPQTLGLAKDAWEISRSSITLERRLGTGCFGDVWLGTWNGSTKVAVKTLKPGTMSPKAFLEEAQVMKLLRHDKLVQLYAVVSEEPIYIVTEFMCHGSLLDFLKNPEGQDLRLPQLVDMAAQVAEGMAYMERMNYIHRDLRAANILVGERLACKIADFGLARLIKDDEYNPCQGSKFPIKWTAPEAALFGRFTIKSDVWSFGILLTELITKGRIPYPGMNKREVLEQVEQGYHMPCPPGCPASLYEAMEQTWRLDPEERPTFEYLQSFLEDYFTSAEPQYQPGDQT
T2 sequence (Q9H3Y6 whole entry): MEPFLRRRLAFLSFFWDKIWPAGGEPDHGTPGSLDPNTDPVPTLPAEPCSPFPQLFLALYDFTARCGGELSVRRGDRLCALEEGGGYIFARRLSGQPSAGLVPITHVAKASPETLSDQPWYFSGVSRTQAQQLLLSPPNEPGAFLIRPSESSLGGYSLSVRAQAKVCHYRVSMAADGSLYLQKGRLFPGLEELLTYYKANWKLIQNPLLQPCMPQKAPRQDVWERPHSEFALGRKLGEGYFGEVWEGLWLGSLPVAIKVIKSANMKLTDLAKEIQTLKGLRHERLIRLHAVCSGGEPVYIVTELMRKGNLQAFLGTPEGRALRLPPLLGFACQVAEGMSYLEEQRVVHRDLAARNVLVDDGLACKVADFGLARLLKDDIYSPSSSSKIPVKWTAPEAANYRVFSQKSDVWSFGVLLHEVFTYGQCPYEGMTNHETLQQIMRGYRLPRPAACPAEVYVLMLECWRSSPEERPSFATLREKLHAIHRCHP
Chain of Protein-tyrosine kinase 6 (Homo sapiens) (Q13882 whole entry, looked up): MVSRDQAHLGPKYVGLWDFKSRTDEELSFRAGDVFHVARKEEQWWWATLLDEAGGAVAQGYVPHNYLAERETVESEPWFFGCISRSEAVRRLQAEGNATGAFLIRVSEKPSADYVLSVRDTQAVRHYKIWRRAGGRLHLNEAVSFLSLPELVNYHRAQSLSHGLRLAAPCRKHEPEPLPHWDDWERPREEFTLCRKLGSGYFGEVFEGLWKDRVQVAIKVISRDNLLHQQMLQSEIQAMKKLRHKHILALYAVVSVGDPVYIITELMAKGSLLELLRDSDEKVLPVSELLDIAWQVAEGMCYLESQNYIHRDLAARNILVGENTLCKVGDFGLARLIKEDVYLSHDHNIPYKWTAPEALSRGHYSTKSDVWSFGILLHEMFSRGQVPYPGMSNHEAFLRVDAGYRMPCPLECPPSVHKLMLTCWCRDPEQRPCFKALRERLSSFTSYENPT

inhibition [1]	inhibition [2]	inhibition [3]	inhibition [4]	inhibition [5]	inhibition [6]	inhibition [7]	inhibition [8]	inhibition [9]	inhibition [10]	inhibition [11]	inhibition [12]	inhibition [13]	inhibition [14]	inhibition [15]	inhibition [16]	inhibition [17]	SMILES
17%	2%	9%	71%	-1%	96%	69%	32%	22%	6%	20%	-2%	23%	90%	9%	42%	-4%	Cc1ccc(C(=O)Nc2ccc(OC(F)(F)F)cc2)cc1C#Cc1cc(-c2cnn(C)c2)cnc1N
9%	22%	4%	4%	7%	64%	94%	21%	19%	2%	23%	11%	39%	98%	8%	-1%	20%	Cc1ccc(C(=O)Nc2ccc(Cl)cc2Cl)cc1C#Cc1cc(-c2cnn(C)c2)cnc1N

SMILES	inhibition [1]	inhibition [2]	inhibition [3]	inhibition [4]	inhibition [5]	inhibition [6]	inhibition [7]	inhibition [8]	inhibition [9]	inhibition [10]	inhibition [11]	inhibition [12]	inhibition [13]	inhibition [14]	inhibition [15]	inhibition [16]	inhibition [17]
Cc1ccc(C(=O)Nc2cc(C(F)(F)F)cc(C(F)(F)F)c2)cc1C#Cc1cc(-c2cnn(C)c2)cnc1N	-2%	22%	27%	-10%	20%	88%	83%	1%	51%	12%	89%	49%	71%	96%	2%	86%	-1%

— ChEMBL document CHEMBL4837249, “Discovery of Potent Antiallergic Agents Based on an o-Aminopyridinyl Alkynyl Scaffold” (J Med Chem, 2021)
